Measurements reported in ChEMBL document CHEMBL1138052, “Discovery and optimization of anthranilic acid sulfonamides as inhibitors of methionine aminopeptidase-2: a structural basis for the reduction of albumin binding” (J Med Chem, 2006).

Assay: Protein binding in rat plasma
Format: ADME, organism-based
Conditions: read-out: PPB (converted)

SMILES	fraction unbound
O=C(O)c1c(NS(=O)(=O)c2ccccc2)ccc2c1CCCC2	0.002
Cc1ccc(NS(=O)(=O)c2ccccc2)c(C(=O)O)c1	0.003
